T1: protein from Thermoanaerobacter italicus (clade 1) (Thermoanaerobacter thermocopriae, UniProt D3T426)
T1 sequence (D3T426 1-453): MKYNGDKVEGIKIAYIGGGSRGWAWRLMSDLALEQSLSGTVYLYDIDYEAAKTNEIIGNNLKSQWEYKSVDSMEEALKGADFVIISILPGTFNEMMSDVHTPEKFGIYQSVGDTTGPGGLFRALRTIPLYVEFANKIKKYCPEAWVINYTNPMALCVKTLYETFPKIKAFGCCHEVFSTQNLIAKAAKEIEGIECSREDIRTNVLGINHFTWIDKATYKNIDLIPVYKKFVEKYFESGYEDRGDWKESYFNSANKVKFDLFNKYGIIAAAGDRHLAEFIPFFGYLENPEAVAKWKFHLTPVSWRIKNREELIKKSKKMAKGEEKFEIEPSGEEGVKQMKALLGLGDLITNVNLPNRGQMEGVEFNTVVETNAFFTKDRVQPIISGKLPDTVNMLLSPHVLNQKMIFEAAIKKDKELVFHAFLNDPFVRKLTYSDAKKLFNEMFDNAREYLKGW

T2: Clostridium phytofermentans Cphy3396 (clade 3) (Lachnoclostridium phytofermentans, UniProt A9KTB9)
T2 sequence (A9KTB9 1-466): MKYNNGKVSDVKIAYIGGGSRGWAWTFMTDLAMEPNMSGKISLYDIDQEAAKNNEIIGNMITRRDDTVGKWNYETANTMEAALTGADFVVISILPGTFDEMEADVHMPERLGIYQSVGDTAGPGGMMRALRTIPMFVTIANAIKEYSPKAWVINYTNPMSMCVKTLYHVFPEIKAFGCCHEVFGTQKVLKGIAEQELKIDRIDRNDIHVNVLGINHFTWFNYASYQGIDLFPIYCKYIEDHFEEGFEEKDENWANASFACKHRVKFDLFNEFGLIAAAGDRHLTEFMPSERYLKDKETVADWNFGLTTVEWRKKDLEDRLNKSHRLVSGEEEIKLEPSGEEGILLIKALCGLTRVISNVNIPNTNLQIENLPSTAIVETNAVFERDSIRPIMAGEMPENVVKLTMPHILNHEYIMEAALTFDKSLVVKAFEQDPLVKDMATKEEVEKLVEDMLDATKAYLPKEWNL


Legend:
[1] = molecular target: T1, protein from Thermoanaerobacter italicus (clade 1); experiment: colorimetric assay of α-galacturonidase activity; assay type: biochemical; settings: cofactors NAD+, Mn2+, DTT as for GH4 enzymes
[2] = molecular target: T2, Clostridium phytofermentans Cphy3396 (clade 3); experiment: colorimetric assay of α-galacturonidase activity; assay type: biochemical; settings: cofactors NAD+, Mn2+, DTT as for GH4 enzymes
[3] = substrate: O=C(O)[C@H]1O[C@H](Oc2ccc([N+](=O)[O-])cc2)[C@H](O)[C@@H](O)[C@H]1O; experiment: discontinuous colorimetric assay, p-nitrophenol release; assay type: biochemical, Bacillus subtilis; settings: 25 mM Tris-HCl pH 7.5, 0.1 mM NAD+, 1 mM MnCl2, 5 mM DTT, ~35-38 °C

| Molecule | colorimetric assay of α-galacturonidase activity [1] | colorimetric assay of α-galacturonidase activity [2] | Km [3] | kcat [3] |
| --- | --- | --- | --- | --- |
| O=C(O)[C@H]1O[C@H](Oc2ccc([N+](=O)[O-])cc2)[C@H](O)[C@@H](O)[C@H]1O [pNPαGalUA] | pNPαGalUA served as substrate in all assays of protein activity | pNPαGalUA served as substrate in all assays of protein activity | – | – |
| LplD (LplDhis6) (Bacillus subtilis subsp. subtilis str. 168) (protein) MFHISTLDQIKIAYIGGGSQGWARSLMSDLSIDERMSGTVALYDLDFEAAQKNEVIGNHSGNGRWRYEAVSTLKKALSAADIVIISILPGSLDDMEVDVHLPERCGIYQSVGDTVGPGGIIRGLRAVPIFAEIARAIRDYAPESWVINYTNPMSVCTRVLYKVFPGIKAIGCCHEVFGTQKLLAEMVTERLGIEVPRREDIRVNVLGINHFTWITKASYRHIDLLPIFREFSAHYGESGYELEGECWRDSVFCSAHRVAFDLFETYGAIPAAGDRHLAEFLPGPYLKQPEVWKFHLTPISFRKQDRAEKRQETERLIVQQRGVAEKASGEEGVNIIAALLGLGELVTNVNMPNQGQVLNLPIQAIVETNAFITRNRVQPILSGALPKGVEMLAARHISNQEAVADAGLTKDTGLAFQAFLNDPLVQIDRSDAEQLFNDMLQCIMQS | – | – | 0.62 ± 0.11 µM | 3.6 s⁻¹ |

Source: article PMC3608401 (FEBS letters, 2013)
